Laboratory results: patent US20230242544A1, “QUINAZOLINE COMPOUNDS, PREPARATION METHODS AND USES THEREOF” (INVENTISBIO CO., LTD., priority 2020, published 2023)
pKd: −log10 of the molar value.

Assays:
Ba/F3_KRAS^G12D cells = Ba/F3_KRAS^G12D cells (Homo sapiens, UniProt P01116, G12D, cells depend on it); test: Ba/F3 KRAS G12D cell proliferation assay (CellTiter-Glo); type: cell-based; details: treated for 3 days, cell-titer Glo, cell growth inhibition, read-out: BaF3_KRAS^G12D IC50
Protocol: Ba/F3_KRAS^G12D cells (KYinno, China) were generated by transducing Ba/F3 parental cells with the recombinant KRAS^G12D lentivirus and followed by 1 ug/mL of puromycin selection and IL3 depletion. […] Cells were seeded at a density of 5×10^3 per well into 96-well plate and incubated overnight. Serial diluted compounds were added to each well. Cells were treated with the compounds for 3 days, after which cell-titer Glo reagent (Promega #G7572) was used to assess cell proliferation. The luminescence signal was then collected on Tecan Spark plate reader. […] Cell growth inhibition of IC50 is calculated with the equation of Y=Bottom+(Top−Bottom)/(1+10^((Log IC50−X)*Hill Slope))

[1] = target: recombinant human KRAS^G12D protein (Homo sapiens, UniProt P01116, G12D); test: Temperature-dependent Fluorescence (TdF) KRAS G12D protein binding assay; details: 6 μM KRAS^G12D protein, 10 μM compound, Sypro Orange; Kd calculated from the fluorescent shift
Protocol: The Temperature-dependent Fluorescence (TdF) assay was used to analyze binding affinity of compound to recombinant human KRAS^G12D protein. The TdF assay was conducted in the 96-well-based real-time fluorescence plate reader (ABI 7500 or Roche LightCycler 480). Fluorescent dye Sypro Orange (Sigma) was used to monitor the protein folding-unfolding transition. Protein-compound binding was gauged by the shift in the unfolding transition temperature (ΔTm) acquired with and without compound. Each reaction sample consists of 6 μM KRAS^G12D Protein, 10 μM compound, and Sypro Orange dye (in 1% DMSO) in 20 μL reaction buffer (25 mM HEPES pH 7.5, 150 mM NaCl, 10 mM MgCl2). […] Binding affinity (Kd value) was calculated based on the degree of fluorescent shift of the protein with and without compound.

Ba/F3_KRAS^G12D cells, sequence (P01116 whole entry G12D): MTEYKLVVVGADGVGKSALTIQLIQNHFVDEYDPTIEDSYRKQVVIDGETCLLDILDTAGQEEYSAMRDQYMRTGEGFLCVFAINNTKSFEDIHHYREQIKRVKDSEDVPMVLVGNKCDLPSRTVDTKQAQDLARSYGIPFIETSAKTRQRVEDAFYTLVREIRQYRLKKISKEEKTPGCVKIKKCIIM
recombinant human KRAS^G12D protein, sequence (P01116 1-188 isoform P01116-2 G12D): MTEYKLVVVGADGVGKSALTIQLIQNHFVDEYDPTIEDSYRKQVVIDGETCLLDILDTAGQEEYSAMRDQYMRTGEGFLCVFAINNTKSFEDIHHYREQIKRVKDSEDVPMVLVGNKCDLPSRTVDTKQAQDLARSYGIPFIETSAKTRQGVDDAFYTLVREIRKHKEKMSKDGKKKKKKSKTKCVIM

Compound	GI50 (Ba/F3_KRAS^G12D cells) [nM]	pKd [1]
CCc1cccc2cc(O)cc(-c3c(Cl)cc4c(N5CC6CCC(C5)N6)nc(OC[C@@]56CCCN5C[C@H](F)C6)nc4c3F)c12 (racemic) [Compound 77]	< 500	> 6.30
Oc1cc(-c2c(Cl)cc3c(N4CC5CCC(C4)N5)nc(OC[C@]45CCCN4C[C@@H](F)C5)nc3c2F)c2c(Cl)cccc2c1 (single isomer, unassigned) [Compound 101]	< 500	> 6.30
Oc1cc(-c2c(Cl)cc3c(N4CC5CCC(C4)N5)nc(OC[C@]45CCCN4C[C@@H](F)C5)nc3c2F)c2c(Cl)cccc2c1 (single isomer, unassigned) [Compound 102]	500 to 5000	< 5.30
Oc1cc(-c2c(Cl)cc3c(N4CC5CCC(C4)N5)nc(OC[C@@]45CCCN4C[C@H](F)C5)nc3c2F)c2c(Cl)cccc2c1 (single isomer, unassigned) [Compound 103]	< 500	> 6.30
Oc1cc(-c2c(Cl)cc3c(N4CC5CCC(C4)N5)nc(OC[C@@]45CCCN4C[C@H](F)C5)nc3c2F)c2c(Cl)cccc2c1 (single isomer, unassigned) [Compound 104]	500 to 5000	< 5.30
Oc1cc(-c2c(Cl)cc3c(N4CC5CCC(C4)N5)nc(OC[C@]45CCCN4C[C@@H](F)C5)nc3c2F)c2ccccc2c1 (single isomer, unassigned) [Compound 105]	500 to 5000	< 5.30
Oc1cc(-c2c(Cl)cc3c(N4CC5CCC(C4)N5)nc(OC[C@]45CCCN4C[C@@H](F)C5)nc3c2F)c2ccccc2c1 (single isomer, unassigned) [Compound 106]	< 500	> 6.30
Oc1cc(-c2c(Cl)cc3c(N4CC5CCC(C4)N5)nc(OC[C@@]45CCCN4C[C@H](F)C5)nc3c2F)c2ccccc2c1 (single isomer, unassigned) [Compound 107]	< 500	> 6.30
Oc1cc(-c2c(Cl)cc3c(N4CC5CCC(C4)N5)nc(OC[C@@]45CCCN4C[C@H](F)C5)nc3c2F)c2ccccc2c1 (single isomer, unassigned) [Compound 108]	500 to 5000	< 5.30
Cc1cccc2cc(O)cc(-c3c(Cl)cc4c(N5CC6CCC(C5)N6)nc(OC[C@@]56CCCN5C[C@H](F)C6)nc4c3F)c12 (single isomer, unassigned) [Compound 117]	< 500	> 6.30
Cc1cccc2cc(O)cc(-c3c(Cl)cc4c(N5CC6CCC(C5)N6)nc(OC[C@@]56CCCN5C[C@H](F)C6)nc4c3F)c12 (single isomer, unassigned) [Compound 118]	< 500	> 6.30
N#Cc1cc2c(N3CC4CCC(C3)N4)nc(OC[C@@]34CCCN3C[C@H](F)C4)nc2c(F)c1-c1cc(O)cc2cccc(Cl)c12 (single isomer, unassigned) [Compound 119]	500 to 5000	< 5.30
N#Cc1cc2c(N3CC4CCC(C3)N4)nc(OC[C@@]34CCCN3C[C@H](F)C4)nc2c(F)c1-c1cc(O)cc2cccc(Cl)c12 (single isomer, unassigned) [Compound 120]	< 500	> 6.30
CCc1cccc2cc(O)cc(-c3c(Cl)cc4c(N5CC6CCC(C5)N6)nc(OC[C@@]56CCCN5C[C@H](F)C6)nc4c3F)c12 (single isomer, unassigned) [Compound 133]	< 500	> 6.30
CCc1cccc2cc(O)cc(-c3c(Cl)cc4c(N5CC6CCC(C5)N6)nc(OC[C@@]56CCCN5C[C@H](F)C6)nc4c3F)c12 (single isomer, unassigned) [Compound 134]	500 to 5000	< 5.30
CCc1c(F)ccc2cc(O)cc(-c3c(Cl)cc4c(N5CC6CCC(C5)N6)nc(OC[C@@]56CCCN5C[C@H](F)C6)nc4c3F)c12 (single isomer, unassigned) [Compound 147]	< 500	–
CCc1c(F)ccc2cc(O)cc(-c3c(Cl)cc4c(N5CC6CCC(C5)N6)nc(OC[C@@]56CCCN5C[C@H](F)C6)nc4c3F)c12 (single isomer, unassigned) [Compound 148]	< 500	–
C#Cc1c(F)ccc2cc(O)cc(-c3c(Cl)cc4c(N5CC6CCC(C5)N6)nc(OC[C@@]56CCCN5C[C@H](F)C6)nc4c3F)c12 (single isomer, unassigned) [Compound 155]	< 500	–
C#Cc1c(F)ccc2cc(O)cc(-c3c(F)cc4c(N5CC6CCC(C5)N6)nc(OC[C@@]56CCCN5C[C@H](F)C6)nc4c3F)c12 (single isomer, unassigned) [Compound 165]	< 500	–
CN(C)CCCOc1nc(N2CC3CCC(C2)N3)c2cc(Cl)c(-c3c(N)cccc3F)c(F)c2n1 [Compound 9]	> 5000	–
CN1CCC[C@H]1COc1nc(NC2CNC2)c2cc(Cl)c(-c3cc(O)cc4cccc(Cl)c34)c(F)c2n1 [Compound 15]	–	< 5.30
CN1CC(F)(F)CC1COc1nc(N2CC3CCC(C2)N3)c2cc(Cl)c(-c3cc(O)cc4ccccc34)c(F)c2n1 (stereo not shown) [Compound 34]	500 to 5000	–
CN1CCO[C@@H](COc2nc(N3CC4CCC(C3)N4)c3cc(Cl)c(-c4cc(O)cc5ccccc45)c(F)c3n2)C1 [Compound 37]	500 to 5000	–

Compound	GI50 (Ba/F3_KRAS^G12D cells) [nM]	pKd [1]
CN1CCC(Oc2nc(N3CC4CCC(C3)N4)c3cc(Cl)c(-c4cc(O)cc5ccccc45)c(F)c3n2)CC1 [Compound 38]	500 to 5000	–
Oc1cccc(F)c1-c1c(Cl)cc2c(N3CC4CCC(C3)N4)nc(OCC34CCCN3CCC4)nc2c1F [Compound 63]	–	5.30 to 6.30
Oc1cc(-c2c(Cl)cc3c(N4CC5CCC(C4)N5)nc(OC[C@@]45CCCN4C[C@H](F)C5)nc3c2F)c2ccccc2c1 [Compound 68]	–	> 6.30
Oc1cc(-c2c(Cl)cc3c(N4CC5CCC(C4)N5)nc(OCC45CCCN4CCC5)nc3c2F)c2c(Cl)c(F)ccc2c1 [Compound 71]	–	> 6.30
N#Cc1cc2c(N3CC4CCC(C3)N4)nc(OCC34CCCN3CCC4)nc2c(F)c1-c1cc(O)cc2ccccc12 [Compound 73]	–	> 6.30
CC(C)N1CCC(Oc2nc(N3CC4CCC(C3)N4)c3cc(Cl)c(-c4cc(O)cc5ccccc45)c(F)c3n2)C1 (stereo not shown) [Compound 84]	–	< 5.30
N#Cc1cc2c(N3CC4CCC(C3)N4)nc(OC[C@@]34CCCN3C[C@H](F)C4)nc2c(F)c1-c1c(O)cccc1F [Compound 90]	> 5000	–
N#Cc1cc2c(N3CC4CCC(C3)N4)nc(OC[C@@]34CCCN3C[C@H](F)C4)nc2c(F)c1-c1ccc(F)c2sc(N)nc12 [Compound 112]	–	> 6.30
Cc1cc(N)nc(-c2c(SC(F)(F)F)cc3c(N4CCNC[C@@H]4C)nc(OC[C@@H]4CCCN4C)nc3c2F)c1C(F)(F)F [Compound 136]	–	< 5.30
COc1nc(N2CC3CCC(C2)N3)c2cc(Cl)c(-c3ccc(F)c4sc(N)nc34)c(F)c2n1 [Compound 141]	–	5.30 to 6.30
CCc1c(F)ccc2cc(O)cc(-c3c(C#N)cc4c(N5CC6CCC(C5)N6)nc(OC[C@@]56CCCN5C[C@H](F)C6)nc4c3F)c12 [Compound 149]	< 500	–
CCc1c(F)ccc2cc(O)cc(-c3c(C#N)cc4c(N5CC6CCC(C5)N6)nc(OC[C@@]56CCCN5C[C@H](F)C6)nc4c3F)c12 [Compound 150]	< 500	–
CCOc1cc2c(N3CC4CCC(C3)N4)nc(OC[C@@]34CCCN3C[C@H](F)C4)nc2c(F)c1-c1cc(O)cc2cccc(CC)c12 [Compound 156]	< 500	–
CCOc1cc2c(N3CC4CCC(C3)N4)nc(OC[C@@]34CCCN3C[C@H](F)C4)nc2c(F)c1-c1cc(O)cc2cccc(CC)c12 [Compound 157]	500 to 5000	–
CCOc1cc2c(N3CC4CCC(C3)N4)nc(OC[C@@]34CCCN3C[C@H](F)C4)nc2c(F)c1-c1cc(O)cc2ccc(F)c(CC)c12 [Compound 158]	< 500	–
CCOc1cc2c(N3CC4CCC(C3)N4)nc(OC[C@@]34CCCN3C[C@H](F)C4)nc2c(F)c1-c1cc(O)cc2ccc(F)c(CC)c12 [Compound 159]	500 to 5000	–
C#Cc1c(F)ccc2cc(O)cc(-c3c(OCC)cc4c(N5CC6CCC(C5)N6)nc(OC[C@@]56CCCN5C[C@H](F)C6)nc4c3F)c12 [Compound 160]	< 500	–
C#Cc1c(F)ccc2cc(O)cc(-c3c(OCC)cc4c(N5CC6CCC(C5)N6)nc(OC[C@@]56CCCN5C[C@H](F)C6)nc4c3F)c12 [Compound 161]	< 500	–
C#Cc1c(F)ccc2cc(O)cc(-c3c(OC)cc4c(N5CC6CCC(C5)N6)nc(OC[C@@]56CCCN5C[C@H](F)C6)nc4c3F)c12 [Compound 162]	< 500	–
CCc1c(F)ccc2cc(O)cc(-c3c(OC)cc4c(N5CC6CCC(C5)N6)nc(OC[C@@]56CCCN5C[C@H](F)C6)nc4c3F)c12 [Compound 164]	< 500	–
C#Cc1c(F)ccc2cc(O)cc(-c3cc(OC)c4c(N5CC6CCC(C5)N6)nc(OC[C@@]56CCCN5C[C@H](F)C6)nc4c3F)c12 [Compound 167]	< 500	–
C#Cc1c(F)ccc2cc(O)cc(-c3cc(OC(C)C)c4c(N5CC6CCC(C5)N6)nc(OC[C@@]56CCCN5C[C@H](F)C6)nc4c3F)c12 [Compound 169]	< 500	–
C#Cc1c(F)ccc2cc(O)cc(-c3ccc4c(N5CC6CCC(C5)N6)nc(OC[C@@]56CCCN5C[C@H](F)C6)nc4c3F)c12 [Compound 170]	< 500	–
